86 compounds from a melting point compilation (Tetko et al.; mined from patent text by program, amines drawn as free bases though some values may be those of a salt) can be followed below.

Non-standard residues stand in square brackets, D forms with d. Residues, ends and D or L forms follow the SMILES beside them. pGlu = O=C1CC[C@@H](C(=O)O)N1

Broadly, the melting point is the temperature, or range, at which the solid turns liquid. Compound `CN(C)C(=Nc1ccccc1N1CCOCC1)N1CCCCC1` showed a melting point of 88 to 90 °C.
In turn, `O=c1ccn(-c2cccc(Cl)c2)nc1-c1ccnn1-c1ccccc1` yielded a melting point of 146 to 147 °C.
With `COC(=O)CCc1c(Cc2ccccc2C(F)(F)F)sc2c1c(=O)n(C)c(=O)n2CC(C)C` the figure was 86 to 88 °C; with `CCCOc1nc2c(Cl)scc2c(=O)n1CCC`, 93 to 95 °C; with `CC(=O)N(Cc1ccccc1)c1c(F)c(F)cc(F)c1C(=O)O`, 150 to 153 °C.
In the case of `Cn1c(C(C)(C)C)cn(N=Cc2cccnc2)c1=O`, the melting point fell in the range of 116 to 121 °C.
In turn, `Cc1cc(C)cc(NC(=O)[C@@H](C)N)c1` yielded a melting point of 134 to 136 °C.
`COc1ccc(C2c3ccccc3C(c3ccccc3)C2C(=O)O)cc1` (stereo unspecified) displayed a melting point of 164 to 166 °C.
For `O=C(Nc1ccc2ccc(Oc3ccc(Cl)cc3)nc2n1)c1ccccc1`, the melting point came to 148 °C.
On to `CNc1nc(C)c(-c2nc3ccccc3c(=O)n2-c2ccccc2Cl)s1`, for which the melting point was in the range of 214 to 215 °C.
With `COc1cc(Nc2c(C#N)cnc3cc(/C=C/CCN4CCOCC4)ccc23)c(Cl)cc1Cl` the figure was 88 to 89 °C; with `O=C(C(=O)c1cnn(CC(F)(F)F)c1)c1cccc(Br)c1`, 66 to 67 °C.
`COC(=O)c1cc(NC(=O)OC(C)(C)C)c(NC(=O)CC(=O)c2cccc(C#N)c2)cc1I` returned a melting point of 162 to 166 °C.
With `CC(=O)c1c(O)cc(C)cc1O` the figure was 146 to 148 °C; with `Cc1cc(Oc2cccc(C(F)(F)F)c2)nn1C(=O)Nc1ccc(Cl)cc1Cl`, 113 to 114 °C.
Compound `CCCCCCCCCCCCCCCCCCOc1cc(N(CC(=O)O)CC(=O)O)cc(S(=O)CC(=O)O)c1` (stereo unspecified) gave a melting point of 138 to 140 °C.
In turn, `COCCOc1ccnc2c(NC(=O)c3c(Cl)cccc3Cl)cccc12` yielded a melting point of 150 to 152 °C.
Under `COC(=O)[C@H](CS)NC(=O)[C@@H]1CCC(=O)N1` ([pGlu]-Cys-OMe) stands 114 to 116 °C.
As to `COC(=O)C=Cc1ccc(C(=O)O)s1`, the melting point was determined as 156 °C.
As for `COC(=O)Cc1csc2c(OCc3cc(-c4ccc(Cl)cc4)on3)cccc12`, the melting point is 155 to 156 °C.
Under `COc1ccc(C(C)C)cc1-c1cc(-c2nnnn2C2CCN(C(=O)OC(C)(C)C)C2)c(O)cc1O` (stereo unspecified) stands 100 to 104 °C.
With `CCCC#Cc1cc(Cl)cc2c1OC(C(F)(F)F)C(C(=O)O)=C2` (stereo unspecified) the figure was 168 to 171 °C.
Under `O=C1C[C@H](O)C[C@@H](/C=C/c2cnc3ccccc3c2-c2cccs2)O1` stands 102 to 104 °C; under `COc1cc(Cc2cnc(N)nc2N)c2cc(C)oc2c1OC`, 209 to 212 °C.
Compound `CC(=O)NC1CCCn2c1c(C)c1ccccc12` (stereo unspecified) had a melting point of 158 to 160 °C.
Regarding `CC12CC(=O)C3C(CCC4CC(O)CCC43C)C1CCC2C(=O)CCCl` (stereo unspecified), the melting point was in the range of 110 to 112 °C.
With `CC1CC(=O)NN=C1c1ccc(NC(=O)C2CC2(C)C)cc1` (stereo unspecified) the figure was 222 to 223 °C.
The compound `CCc1nc2c(cnn2CC)c(NC2CCOCC2)c1CNC(=O)c1cc(C)cc(C(=O)NCc2ccc(C)c(Br)c2)c1` returned a melting point of 117 to 119 °C.
As for `Cc1oc(-c2ccco2)nc1COc1ccc(CCl)cc1Cl`, the melting point lay in the range of 103 to 104 °C.
With `Cc1cc(C)c(Nc2nc(C)ccc2S(=O)(=O)c2ccc(OCCCCC#N)cc2)c(C)c1` the figure was 115 to 116 °C; with `CN1Cc2c(C#CC3(O)CCC3)ncn2-c2ccc(F)cc2C1=O`, 177 to 179 °C; with `CC(=C(c1ccc(N(C)C)cc1)c1ccc(N(C)C)cc1)P(C(C)(C)C)C(C)(C)C`, 133 to 135 °C.
The compound `CC(O)C(NCc1ccc([N+](=O)[O-])cc1)C(=O)O` (stereo unspecified) yielded a melting point of 142 to 143 °C.
`CC(C)(C)NS(=O)(=O)c1c(Cl)cccc1-c1ccccc1` yielded a melting point of 168 to 170 °C.
In turn, `N#Cc1cnc2c(sc3c([N+](=O)[O-])cccc32)c1Cl` came in with a melting point of 258 to 260 °C.
`O=C(C=Cc1ccc(N2CCCC2)cc1)c1ccc2c(c1)CCC2`: the melting point fell in the range of 162 to 164 °C.
For `O=c1c2c(Cl)cccc2nc(C(S)c2ncnc3[nH]cnc23)n1-c1ccccc1F` (stereo unspecified), the melting point was determined as 244 °C.
With `COc1cc2c(cc1OC)C(Oc1ccc(C(F)(F)F)cc1)CN(CC#N)CC2` (stereo unspecified) the figure was 93 to 94 °C; with `COc1cc(OCC(=O)N[C@H]2CCN(Cc3ccccc3)C2)ccc1C(=NN)C(=O)c1ccc(O)c(N)c1`, 139 to 141 °C.
With `Cn1cc(-c2ccccc2)c(=S)c(-c2cccc(Cl)c2)c1` the figure was 190 to 193 °C; with `CN1CC(CCCl)Oc2cc3ccccc3cc2C1=O` (stereo unspecified), 101 to 102 °C.
Regarding `C#CCOC[C@@H](NC(C)=O)C(=O)OC`, the melting point lay within 58.5 to 59.5 °C.
`Cc1ncc(CCCOc2c(C)cc(C#N)cc2C)s1` came in with a melting point of 64 to 66 °C.
In turn, `CCCn1nc2c(N)nc3ccccc3c2c1CCNC(=O)Nc1ccc(F)c(F)c1` had a melting point of 211 to 212 °C.
With `CC(C)(C)OC(=O)NC(Cc1cc(C(=O)c2cc(C(F)(F)F)cc(C(F)(F)F)c2)ccc1N)C(=O)OC(C)(C)C` (stereo unspecified) the figure was 134 to 135 °C; with `COc1cc(OC)c(F)c(N2Cc3cnc(NC[C@H](O)[C@@H](O)CO)nc3N(C3CCCC3)C2=O)c1`, 86 to 88 °C; with `CCOC(=O)N(C)N1CCc2ccccc2C(Oc2ccc(C(F)(F)F)cc2)C1` (stereo unspecified), 204 to 205 °C.
Compound `CCOC(=O)c1cc(Nc2cccnc2)c(=O)n(CC)n1` had a melting point of 166 to 167 °C.
Consider `CCC(=O)CNC(=O)c1cc(OC)cc(Oc2cccc(C(F)(F)F)c2)n1`, for which the melting point is 100 to 103 °C.
Consider `O=C(CCc1cc(Br)c(OC(=O)c2c3ccccc3nc3ccccc23)c(Br)c1)ON1C(=O)CCC1=O`, for which the melting point lay within 175 to 176 °C.
Under `CCN(CC)C(=O)CCCN(C(=O)Nc1cc(OC)cc(C(C)(C)C)c1O)c1ccccc1` stands 131 to 133 °C; under `Cc1c(C(=O)Nc2ccc(N3CCC(NCCO)CC3)c(C#N)c2)cnn1-c1ccc(Cl)cc1`, 181 °C; under `Cc1sc(-c2ccccc2)nc1COc1ccc(CCC[C@@H]2OC(=O)NC2=O)cc1`, 113 to 114 °C.
Compound `COC(=O)Cc1ccc(C(C)(C)C)c([N+](=O)[O-])c1` returned a melting point of 92 to 95 °C.
With `N#Cc1ccc(CN2CCc3ccc(C(=O)CCCC4CCN(Cc5ccccc5Cl)CC4)cc3CC2)cc1` the figure was 118 to 119 °C.
On to `COC(=O)c1ccc(-c2cc[nH]n2)cc1Cl`, for which the melting point is 130 to 131 °C.
For the compound `O=S(=O)(Nc1cc(C(F)(F)F)ccc1-c1cc(Oc2ccc3cccnc3c2)ncn1)c1ccccc1`, the melting point was in the range of 168 to 170 °C.
As to `CC(=O)c1cccc(-c2ccc3nc(-c4ccc(Cl)cc4)cn3c2)c1`, the melting point was 173 to 175 °C.
With `O=C1CO[C@@H]2c3ccccc3OCC[C@H]2N1` (relative stereo) the figure was 246 to 248 °C; with `CC1C(=O)Oc2cc(N3CCOCC3)c(Cl)cc21` (stereo unspecified), 103 to 105 °C.
Under `NC(=O)c1ccc(N2CCN(CCC3=CCCc4ccccc43)CC2)cc1` stands 216 °C; under `CCCN1C(=O)CN=C(c2cccc(C(F)(F)F)c2)c2cc(OC)c(OC)cc21`, 135 to 137 °C.
Under `COC(=S)C1CCn2c(C(=O)c3ccccc3)ccc21` (stereo unspecified) stands 69 °C.
Consider `O=[N+]([O-])c1ccccc1NC1CCCCC1`, for which the melting point fell in the range of 105 to 107 °C.
On to `CCOC(=O)C1=C(CCCc2ccccc2)NC(C)=C(C(=O)OC)C1c1cccc([N+](=O)[O-])c1` (stereo unspecified), for which the melting point is 125 to 127 °C.
With `O=C(O)c1ccc(Cl)cc1NCc1cccnc1` the figure was 235 to 236 °C; with `C#CCN(Cc1ccc2nc(Cl)c(N)cc2c1)c1ccc(C(=O)N[C@@H](CCC(=O)O)C(=O)O)c(F)c1`, 107 to 110 °C; with `CCCCc1nc2c(N)nc3ccc(OCCC4CCN(C(=O)C5CCCC5)CC4)cc3c2n1C`, 147 to 150 °C.
`O=S(=O)(C(=CNc1ccc(Br)cn1)S(=O)(=O)c1ccccc1)c1ccccc1` had a melting point of 177 to 179 °C.
In turn, `C[C@@H]1NC(=O)C[C@@]1(O)C1CC1` had a melting point of 133 to 140 °C.
On to `CC(C)N1CC2(COc3ccc(N)cc3OC2)OC1=O` (stereo unspecified), for which the melting point is 157 to 159 °C.
With `O=C(NNS(=O)(=O)c1ccccc1)c1cc2cc(Cl)ccc2o1` the figure was 181 to 183 °C.
Consider `BrCCCCCCOc1ccc(OCc2ccccc2)cc1`, for which the melting point is 72 to 73 °C.
With `COC(=O)COc1ccc(CCN2CCN(c3ccncc3)CC2)cc1` the figure was 104 to 105 °C; with `CC(=O)Nc1ccc(S(=O)(=O)Nc2ccn(CC3CC3)c(=O)n2)cc1`, 222 to 224 °C.
Under `N#Cc1cnn2c(C(F)(F)F)cc(-c3ccc(Cl)cc3Cl)nc12` stands 180 °C; under `COc1ccc2ccc(N3C(=O)c4ccccc4C3CC(=O)CCc3ccccc3)nc2n1` (stereo unspecified), 180 °C; under `Cc1noc(NS(=O)(=O)c2ccccc2-c2ccc(-c3ncco3)cc2CN(CC(F)(F)F)C(C)C)c1C`, 80 to 90 °C.
`O=C(Cl)c1cc(C(=O)Cl)c(C#Cc2ccccc2)cc1C#Cc1ccccc1` yielded a melting point of 157 to 160 °C.
With `Nc1nc(-c2ccc(CCN3CCN(c4cccc(C(F)(F)F)c4)CC3)cc2)cs1` the figure was 274 to 277 °C.
With `Cc1cc(N)c(C(=O)OC(C)C)cc1Oc1ccc(OC(F)(F)F)cc1` the figure was 71 to 72 °C.
`CCCc1c(O)ccc2ccc(OCC(=O)OC)cc12` showed a melting point of 122 to 124 °C.
With `COc1ccc2nc(-c3cccc(C)c3)c(-c3ccnc(NC4CCCCC4)c3)n2n1` the figure was 188 to 189 °C; with `CCOc1nn(-c2ccc(C(F)(F)F)cn2)cc1CCOc1ccccc1CC(=O)O`, 134 to 135 °C; with `CCCCCCCCCCCCCCOc1ccc(CC(=O)Nc2ccccc2CBr)cc1`, 100 to 103 °C.
Compound `CCCCc1nc2ccccc2n1Cc1ccc(-c2ccccc2C2SC(=O)NC2=O)cc1` (stereo unspecified) had a melting point of 162 to 163 °C.
